Measured values published in patent publication US20010053796A1, “Delta-aminolevulinic acid for prevention and treatment of infection microorganisms and parasite” (priority 2000, published 2001).

Columns and labels:
Edwardsiella tarda [1] = assay: Treatment effect of infected fry by oral administration in feed; type: in vivo, Sebastes schlegeli; conditions: 50 fish, Bastardhalibut
Protocol: (§1) In this example, fry of Bastardhalibut and Sebastes schlegeli (mean body weight 2 g), 50 per each breeding tank, were preliminary-bred for 1 week and stabilized. […] The artificial infection methods were carried out through the digestion method. Pathogenic organisms were applied into fish tanks and introduced into seawater for an hour, wherein the concentration of organisms adjusted to 10^4 CFU/mL. Treatment conditions are as follows; after artificial infection, infected fish were moved to fish tanks and kept in the infection period for 3 days. On the fourth day of infection, 0.1˜50 ppm of δ-aminolevulinic acid for feed were added. The fish were bred for 2 weeks after exchanging with clean seawater and the mortality of fish according to infection was monitored. In the control groups, after each bacteria were identically infected through digestion method, mortality of Bastardhalibut and Sebastes schlegeli according to bacteria infection was identified while breeding with marketing assorted feed without δ-aminolevulinic acid. As a result of this experiment, δ-aminolevulinic acid-treated groups have shown high viability in both Bastardhalibut (Table 20˜Table 23) and Sebastes schlegeli (Table 24˜Table 27).

Staphylococcus epidermis = assay: as above; type: in vivo, Sebastes schlegeli; conditions: 50 fish, Bastardhalibut
Protocol: as §1

Pseudomonas sp. [2] = assay: as above; type: in vivo, Sebastes schlegeli; conditions: 50 fish, Bastardhalibut
Protocol: as §1

Staphylococcus sp. [3] = assay: as above; type: in vivo, Sebastes schlegeli; conditions: 50 fish, Bastardhalibut
Protocol: as §1

Streptococcus sp. = assay: as above; type: in vivo, Sebastes schlegeli; conditions: 50 fish, Bastardhalibut
Protocol: as §1

Edwardsiella tarda [4] = assay: Prevention effect for artificial infection (abdominal injection of bacteria); type: in vivo, Bastardhalibut; conditions: for Mortality during Cultivation: dead of 20 fish
Protocol: (§2) The water temperature was maintained at 20° C. (±2° C. ) throughout the experiment.
(§3) As the same method of above Experiment 1, fishes of both control group and experiment group were prepared and artificially infected by direct abdominal injection of Edwardsiella tarda 10^5 CFU per 1 fish. Each experimental fish was moved to fish tanks for monitoring and monitored for mortality according to infection for 2 weeks and viability after 2 weeks.

Pseudomonas sp. [5] = assay: as above; type: in vivo, Bastardhalibut; conditions: for Mortality during Cultivation: dead of 20 fish
Protocol: as §2, §3
(§4) Bastardhalibut and Sebastes schlegeli were infected by Pseudomonas sp. through abdominal injection with the same method of fish breeding; δ-aminolevulinic acid treatment and artificial infection carried out in Experiment 1 and 2. Each experimental fish was moved to fish tanks for monitoring and monitored for mortality according to infection for 2 weeks.

[6] = tested on: FHM (Fathead Minnow Epithelioma); conditions: 24 h
Protocol: δ-aminolevulinic acid feed were prepared to 1.0 M concentration (0. 167 g/mL HBSS) and diluted by 10-fold dilution method. 100 μl of each fish cell line suspension of 2.5×10^5 were placed into 96-well microplate and then, 100 μl of each of the resulting diluted solution, 4 well/dilution unit, were added respectively. Fish cell lines, which were used for this cell toxicity experiment of δ-aminolevulinic acid, were RTG-2 (Rainbow Trout Gonad), FHM (Fathead Minnow Epithelioma) and CHSE (Chinook Salmon Embryo) lotted out from Dr. M. Yoshimizu of the Department of Fisheries, Hokkaido University, Japan. For these experimental cells, 100 U/mL penicillin (Sigma), 100 μl/mL streptomycin (Sigma) and MEM media supplemented with 5% fetal bovine serum (FBS, Gibco) for cell culture were used. Cultured cells in 96-well microplate was incubated for 3 hrs at 15° C. and δ-aminolevulinic acid were added to wells at amounts of 100 μl of 0, 1.0, 10, 50 and 100 mM and incubated for 24 hrs at 18° C. As a control group, instead of δ-aminolevulinic acid, HBSS was added at the same amount. […] Absorbance was measured with an ELISA reader at 570 μl.

Edwardsiella tarda [7] = assay: Prevention effect for artificial infection (abdominal injection of bacteria); type: in vivo, Sebastes schlegeli; conditions: for Mortality during Cultivation: dead of 20 fish
Protocol: as §2, §3

Edwardsiella tarda [8] = assay: Treatment of Edwardsiella bacteria-infected fish in a fish farm; type: in vivo, flatfish
Text: Infected fish cultivated in the terrestrial fish tank were found in a fish farm, where flatfish (mean weight 11 g) were dying by spontaneous attack. The main source of infection was Edwardsiella tardaa. About 30˜40% of cumulative mortality per cultivating tank has shown after 5 days since the mortality started. […] On the first day, 0.1 ppm δ-aminolevulinic acid was digestion-treated in two tanks for 2 hrs and on the second and third day, 0.01 ppm δ-aminolevulinic acid was digested for 2 hrs. They were then observed, during the water was exchanged. δ-aminolevulinic acid digestion-treated tanks (about 3,000 fish) has maintained 40% cumulative mortality for 1 week after treatment, while δ-aminolevulinic acid non-treated tanks has shown 60% cumulative mortality and progressive disease was observed, more reporting 20% cumulative mortality thereafter.

Staphylococcus sp. [9] = assay: Prevention effect for artificial infection (abdominal injection of bacteria); type: in vivo, Sebastes schlegeli; conditions: for Mortality during Cultivation: dead of 20 fish
Protocol: The water temperature was maintained at 20° C. (±2° C. ) throughout the experiment. […]
as §4, with “Staphylococcus” for “Pseudomonas”, “by” for “through”, “breeding” for “breeding;”

[10] = feed 0.1 ppm from 4th day of infection
[11] = feed 1.0 ppm from 4th day of infection
[12] = feed 10 ppm from 4th day of infection
[13] = feed 50 ppm from 4th day of infection
[14] = orally, 1.0 ppm in feed, Bastardhalibut
[15] = orally, 10 ppm in feed, Bastardhalibut
[16] = orally, 100 ppm in feed, Bastardhalibut
[17] = to fish tanks, 0.01 ppm, Bastardhalibut
[18] = to fish tanks, 0.1 ppm, Bastardhalibut
[19] = to fish tanks, 1.0 ppm, Bastardhalibut

For NCC(=O)CCC(=O)O [δ-aminolevulinic acid], the Viability (Edwardsiella tarda [1]; [10]) was 52%, the Viability (Edwardsiella tarda [1]; [11]) was 62% and the Viability (Edwardsiella tarda [1]; [12]) was 68%. For the same compound, the Viability (Edwardsiella tarda [1]; [13]) was 88%, the Viability (Staphylococcus epidermis; [10]) was 36% and the Viability (Staphylococcus epidermis; [11]) was 63%. The Viability (Staphylococcus epidermis; [12]) was 64%, the Viability (Staphylococcus epidermis; [13]) was 86% and the Viability (Pseudomonas sp. [2]; [10]) was 52%. The Viability (Pseudomonas sp. [2]; [11]) was 78%, the Viability (Pseudomonas sp. [2]; [12]) was 86% and the Viability (Pseudomonas sp. [2]; [13]) was 84%. It also gave a Viability (Staphylococcus sp. [3]; [10]) of 48%, a Viability (Staphylococcus sp. [3]; [11]) of 70% and a Viability (Staphylococcus sp. [3]; [12]) of 78%. For the same compound, the Viability (Staphylococcus sp. [3]; [13]) was 88%, the Viability (Streptococcus sp.; [10]) was 44% and the Viability (Streptococcus sp.; [11]) was 66%. It also gave a Viability (Streptococcus sp.; [12]) of 72%, a Viability (Streptococcus sp.; [13]) of 82% and a Viability (Edwardsiella tarda [4]; orally, 0.01 ppm in feed) of 75%. For the same compound, the “Mortality during Cultivation” value (Edwardsiella tarda [4]; orally, 0.01 ppm in feed) was 5, the Viability (Edwardsiella tarda [4]; orally, 1.0 ppm in feed) was 70% and the “Mortality during Cultivation” value (Edwardsiella tarda [4]; orally, 1.0 ppm in feed) was 6. The Viability (Edwardsiella tarda [4]; orally, 10 ppm in feed) was 85%, the “Mortality during Cultivation” value (Edwardsiella tarda [4]; orally, 10 ppm in feed) was 3 and the Viability (Edwardsiella tarda [4]; orally, 100 ppm in feed) was 95%. The “Mortality during Cultivation” value (Edwardsiella tarda [4]; orally, 100 ppm in feed) was 1, the Viability (Edwardsiella tarda [4]; to fish tanks, 0.01 ppm) was 65% and the “Mortality during Cultivation” value (Edwardsiella tarda [4]; to fish tanks, 0.01 ppm) was 7. For the same compound, the Viability (Edwardsiella tarda [4]; to fish tanks, 0.1 ppm) was 75%, the “Mortality during Cultivation” value (Edwardsiella tarda [4]; to fish tanks, 0.1 ppm) was 5 and the Viability (Edwardsiella tarda [4]; to fish tanks, 1.0 ppm) was 85%. The “Mortality during Cultivation” value (Edwardsiella tarda [4]; to fish tanks, 1.0 ppm) was 3, the Viability (Edwardsiella tarda [4]; to fish tanks, 10 ppm) was 90% and the “Mortality during Cultivation” value (Edwardsiella tarda [4]; to fish tanks, 10 ppm) was 2. For the same compound, the Viability (Pseudomonas sp. [5]; orally, 0.1 ppm in feed) was 60%, the “Mortality during Cultivation” value (Pseudomonas sp. [5]; orally, 0.1 ppm in feed) was 8 and the Viability (Pseudomonas sp. [5]; [14]) was 55%. For the same compound, the “Mortality during Cultivation” value (Pseudomonas sp. [5]; [14]) was 9, the Viability (Pseudomonas sp. [5]; [15]) was 90% and the “Mortality during Cultivation” value (Pseudomonas sp. [5]; [15]) was 2. For the same compound, the Viability (Pseudomonas sp. [5]; [16]) was 90%, the “Mortality during Cultivation” value (Pseudomonas sp. [5]; [16]) was 2 and the Viability (Pseudomonas sp. [5]; [17]) was 60%. The “Mortality during Cultivation” value (Pseudomonas sp. [5]; [17]) was 8, the Viability (Pseudomonas sp. [5]; [18]) was 70% and the “Mortality during Cultivation” value (Pseudomonas sp. [5]; [18]) was 6. The Viability (Pseudomonas sp. [5]; [19]) was 90%, the “Mortality during Cultivation” value (Pseudomonas sp. [5]; [19]) was 2 and the Viability (Pseudomonas sp. [5]; to fish tanks, 10 ppm) was 90%. For the same compound, the “Mortality during Cultivation” value (Pseudomonas sp. [5]; to fish tanks, 10 ppm) was 2, the “safe range of toxicity” value [6] was “below 10 mM” and the Viability (Edwardsiella tarda [7]; orally, 0.01 ppm in feed) was 70%. The “Mortality during Cultivation” value (Edwardsiella tarda [7]; orally, 0.01 ppm in feed) was 6, the Viability (Edwardsiella tarda [7]; orally, 1.0 ppm in feed) was 80% and the “Mortality during Cultivation” value (Edwardsiella tarda [7]; orally, 1.0 ppm in feed) was 4. The Viability (Edwardsiella tarda [7]; orally, 10 ppm in feed) was 85%, the “Mortality during Cultivation” value (Edwardsiella tarda [7]; orally, 10 ppm in feed) was 3 and the Viability (Edwardsiella tarda [7]; orally, 100 ppm in feed) was 90%. The “Mortality during Cultivation” value (Edwardsiella tarda [7]; orally, 100 ppm in feed) was 2, the Viability (Edwardsiella tarda [7]; to fish tanks, 0.01 ppm) was 65% and the “Mortality during Cultivation” value (Edwardsiella tarda [7]; to fish tanks, 0.01 ppm) was 7. For the same compound, the Viability (Edwardsiella tarda [7]; to fish tanks, 0.1 ppm) was 75%, the “Mortality during Cultivation” value (Edwardsiella tarda [7]; to fish tanks, 0.1 ppm) was 5 and the Viability (Edwardsiella tarda [7]; to fish tanks, 1.0 ppm) was 90%. The “Mortality during Cultivation” value (Edwardsiella tarda [7]; to fish tanks, 1.0 ppm) was 2, the Viability (Edwardsiella tarda [7]; to fish tanks, 10 ppm) was 85% and the “Mortality during Cultivation” value (Edwardsiella tarda [7]; to fish tanks, 10 ppm) was 3. For the same compound, the Cumulative mortality (Edwardsiella tarda [8]; digestion 0.1 ppm day 1, 0.01 ppm days 2 and 3, 2 hrs, maintained for 1 week after treatment) was 40%, the Cumulative mortality (Edwardsiella tarda [8]; digestion-treated groups in progressive disease, end result (non-treated 80%)) was “about 40%” and the Viability (Staphylococcus sp. [9]; orally, 0.1 ppm in feed) was 50%. The “Mortality during Cultivation” value (Staphylococcus sp. [9]; orally, 0.1 ppm in feed) was 10, the Viability (Staphylococcus sp. [9]; orally, 1.0 ppm in feed) was 55% and the “Mortality during Cultivation” value (Staphylococcus sp. [9]; orally, 1.0 ppm in feed) was 9. For the same compound, the Viability (Staphylococcus sp. [9]; orally, 10 ppm in feed) was 90%, the “Mortality during Cultivation” value (Staphylococcus sp. [9]; orally, 10 ppm in feed) was 2 and the Viability (Staphylococcus sp. [9]; orally, 100 ppm in feed) was 90%. The “Mortality during Cultivation” value (Staphylococcus sp. [9]; orally, 100 ppm in feed) was 2, the Viability (Staphylococcus sp. [9]; to fish tanks, 0.01 ppm) was 60% and the “Mortality during Cultivation” value (Staphylococcus sp. [9]; to fish tanks, 0.01 ppm) was 8. For the same compound, the Viability (Staphylococcus sp. [9]; to fish tanks, 0.1 ppm) was 65%, the “Mortality during Cultivation” value (Staphylococcus sp. [9]; to fish tanks, 0.1 ppm) was 7 and the Viability (Staphylococcus sp. [9]; to fish tanks, 1.0 ppm) was 95%. For the same compound, the “Mortality during Cultivation” value (Staphylococcus sp. [9]; to fish tanks, 1.0 ppm) was 1, the Viability (Staphylococcus sp. [9]; to fish tanks, 10 ppm) was 90% and the “Mortality during Cultivation” value (Staphylococcus sp. [9]; to fish tanks, 10 ppm) was 2.
